Literature values, collected in US20230149829A1, “ORAL COMPOSITIONS OF PLANTS THROUGH A DOUBLE EXTRACTION SYSTEM AND METHODS OF MAKING THE SAME” (Nulixir Inc., priority 2021, published 2023).

tested on: many strains of fungi; conditions: not given

| Compound | inhibitory activity against fungi |
| --- | --- |
| O=CC=Cc1ccccc1 [Cinnamaldehyde] | strong inhibitory activity |

tested on: not given; conditions: n-octanol and water; categorization assumed at pH=7 unless stated otherwise

| Compound | log P |
| --- | --- |
| COc1cc2c(c(OC)c1OC)-c1c(cc(OC)c(OC)c1OC)C[C@H](C)[C@H](C)C2 [(−)-schisandrin A] | ~3.6 |
| N#C[C@@]1(O[C@@H]2O[C@H](CO)[C@@H](O)[C@H](O)[C@H]2O)C=C[C@@H](O)C1 [tetraphyllin B] | ~−2.5 |
| CC(C)=CCC[C@](C)(O[C@@H]1O[C@H](CO[C@@H]2O[C@H](CO)[C@@H](O)[C@H](O)[C@H]2O)[C@@H](O)[C@H](O)[C@H]1O)[C@H]1CC[C@]2(C)[C@@H]1[C@H](O)C[C@@H]1[C@@]3(C)CC[C@H](O[C@@H]4O[C@H](CO)[C@@H](O)[C@H](O)[C@H]4O[C@@H]4O[C@H](CO)[C@@H](O)[C@H](O)[C@H]4O)C(C)(C)[C@@H]3CC[C@]12C [ginsenoside rb1] | ~−1 |
| COc1ccc([C@@]23CCC(=O)C[C@@H]2N(C)CC3)cc1OC [mesembrine] | ~1.5 |
| CC(C)=C[C@H]1C[C@](C)(O)[C@@H]2[C@H]3CC[C@@H]4[C@@]5(C)CC[C@H](O[C@@H]6OC[C@H](O)[C@H](O[C@@H]7O[C@H](CO)[C@@H](O)[C@H](O)[C@H]7O)[C@H]6O[C@@H]6O[C@@H](CO)[C@H](O)[C@H]6O)C(C)(C)[C@@H]5CC[C@@]4(C)[C@@]34CO[C@@]2(C4)O1 [bacopaside X] | ~2.2 |
| CC(C)=C[C@@H]1CO[C@]23C[C@]4(CO2)[C@H](CC[C@@H]2[C@@]5(C)CC[C@H](O[C@@H]6OC[C@H](O)[C@H](O[C@@H]7O[C@H](CO)[C@@H](O)[C@H](O)[C@H]7O)[C@H]6O[C@@H]6O[C@@H](CO)[C@H](O)[C@H]6O)C(C)(C)[C@@H]5CC[C@]24C)[C@H]3[C@@]1(C)O [bacopasaponin C] | ~2 |
| COC1=CC(=O)O[C@@H](CCc2ccc3c(c2)OCO3)C1 [7,8-dihydromethysticin] | ~2.2 |
| CC(C)=CCC[C@](C)(O[C@@H]1O[C@H](CO)[C@@H](O)[C@H](O)[C@H]1O)[C@H]1CC[C@]2(C)[C@@H]1[C@H](O)C[C@@H]1[C@@]3(C)CC[C@H](O)C(C)(C)[C@@H]3[C@@H](O[C@@H]3O[C@H](CO)[C@@H](O)[C@H](O)[C@H]3O)C[C@]12C [ginsenoside rg1] | ~0.8 |
| methylliberine | ~−0.083 |
| COc1ccc([C@@]23C=CC(=O)C[C@@H]2N(C)CC3)cc1OC [mesembrenone] | ~1.3 |
| COc1ccc(CCc2cc(OC)cc(=O)o2)cc1 [7,8-dihydroyangonin] | ~2.9 |
| CC(C)=C[C@H]1C[C@](C)(O)[C@H]2[C@H]3CC[C@@H]4[C@@]5(C)CC[C@H](O[C@@H]6O[C@H](CO)[C@@H](O)[C@H](O[C@@H]7O[C@H](CO)[C@@H](O)[C@H](O)[C@H]7O)[C@H]6O[C@@H]6O[C@@H](CO)[C@H](O)[C@H]6O)C(C)(C)[C@@H]5CC[C@@]4(C)[C@@]34CO[C@@]2(C4)O1 [bacoside A3] | ~2.1 |
| CC(=O)OC1C=CC(=O)N(C(=O)CCc2ccccc2)C1 (stereo not drawn) [pipermethystine] | ~1.8 |
| COC1=CC(=O)OC(/C=C/c2ccc(OC)cc2)C1 (stereo not drawn) [5,6-dihydroyangonin] | ~2.5 |
| hericerin | ~6.4 |
| COc1ccc(C23C=CC(O)CC2N(C)CC3)cc1OC (stereo not drawn) [mesembrenol] | ~2.4 |
| tortuosomine | ~3 |
| schisandroside C | ~1.6 |
| herinacine A | ~2.5 |
| (R)-kawain | ~2.7 |
| COc1cc(/C=C\c2ccc(OC)c(O)c2)oc(=O)c1 [11-hydroxyyangonin] | ~2.2 |
| COc1cc2c(c(OC)c1OC)-c1c(cc(OC)c(OC)c1OC)C[C@](C)(O)[C@@H](C)C2 [(+)-schisandrin] | ~5 |
| COc1cc([C@H]2Oc3cc(O)c4c(=O)c(O)c(-c5ccc(O)cc5)oc4c3O[C@@H]2CO)ccc1O [rhodiolin] | ~2 |
| bacopaside B | ~2.8 |
| CC1=C(CO)C(=O)O[C@@H]([C@@H](C)[C@H]2CC[C@H]3[C@@H]4C[C@H](Cl)[C@]5(O)[C@@H](O)C=CC(=O)[C@]5(C)[C@H]4CC[C@]23C)C1 [6a-chloro-5b-hydroxywithaferin A] | ~3.2 |
| COc1cc2c(c(OC)c1OC)-c1c(cc3c(c1OC)OCO3)CC(C)C(C)C2 (single isomer, unassigned; (-)) [(−)-schisandrin B] | ~4 |
